In patent US5028609A, “Alkyl diamine derivatives” (Alkaloida Vegyeszeti Gyar, priority 1983, dated 1991):

How the values were obtained:
[1] = system: white mice; assay: acute intravenous toxicity, method of Litchfield and Wilcoxon; type: in vivo; conditions: i.v.
Experimental: (§1) The acute intravenous (i.v.) toxicity values of the testcompounds was determined by the method of Litchfield and Wilcoxon and as test-animals white mice of both sexes were used (J. of Pharmacol. 1949, 96, 99.).

[2] = system: aconitine arrhythmia on rats; assay: preventive aconitine arrhythmia test on rats; type: in vivo, rats of Wistar strain; conditions: for arrhythmia appearance time: ± S.E., 30 min monitoring; for responders at 4 mg/kg: read-out: positive cases, 4.0 mg/kg i.v., 2 min before aconitine
Experimental: The antiarrhythmic activity of the compounds of the Formula I was compared in a preventive aconitine arrhythmia test on rats as follows:
rats of Wistar strain weighing 200 to 250 g. were narcotized i.p. with 1.25 g./kg. of urethane and their ECG was registered by a Hellige equipment by II standard limb head.
Arrhythmia was induced by an i.v. infusion of 30 /ug/kg. aconitine nitrate whereafter the ECG was continuously monitored for 30 minutes.
Those cases were considered positive, where within 30 minutes after the aconitine infusion not a single phase of the arrhythmia occurred.
In control animals pretreated i.v. with a 0.9% sodium chloride solution (0.1 ml./100 g.) (n=20) the arrhythmogenic activity of the aconitine nitrate appeared after 2.88±0.32 minutes.
Per cent values of the positive cases, average time of the appearance of the arrhythmia-when the induced arrhythmia appeared within 30 minutes and toxicity values are shown.

[3] = system: arrhythmia in rats; assay: arrhythmia test carried out in rats according to Zetler and Strubelt (ED125, ED150); type: in vivo; conditions: Rattus norvegicus, iv
Experimental: In cases of compounds having outstanding antiarrhythmic activity ED125 and ED150 values were calculated in arrhythmia test carried out in rats according to Zetler and Strubelt (Arzneim.-Forsch.) Drug.

[4] = acute intravenous toxicity, method of Litchfield and Wilcoxon; type: in vivo; conditions: mouse, in vivo, iv, mice
Experimental: as §1

[5] = Rattus norvegicus, iv, 0.5 h, no arrhythmia within 30 min = positive

SMILES | LD50 [1] [mg/kg] | arrhythmia appearance time ([2]; 4.0 mg/kg i.v.) [min] | responders at 4 mg/kg [2, 5] [%] | ED125 [3] [mg/kg] | ED150 [3] [mg/kg] | also measured
CC1(C)C=C(C(=O)NCCCNC(=O)c2ccccc2C(=O)O)C(C)(C)N1 [I/68, N-(2,2,5,5-tetramethyl-3-pyrroline-3-carbonyl)-N'-(2-carboxybenzoyl)-1,3-diaminopropane] | 419 | – | – | – | – | arrhythmia appearance time ([2]; 41.9 mg/kg i.v.): 4.6 ± 0.7 min; responders at 41.9 mg/kg ([2]; Rattus norvegicus, iv, 0.5 h, read-out: positive cases, 41.9 mg/kg i.v., 2 min before aconitine, no arrhythmia within 30 min = positive): 40%
CC1(C)C=C(C(=O)NCCCNCc2ccsc2)C(C)(C)N1 [I/53] | 28 | 30 | 100 | 3.4 | 5.5 | –
CC1(C)CC(C(=O)NCCCNCc2ccsc2)C(C)(C)N1 (stereo not shown) [I/54] | 19 | 5.2 ± 0.8 | 70 | 6.9 | 13.2 | –
CC1(C)CC(C(=O)NCCCNCc2ccc(C(F)(F)F)cc2)C(C)(C)N1 (stereo not shown) [I/52] | 39 | 7.3 | 90 | 2.1 | 2.9 | –
CC1(C)C=C(C(=O)NCCCCNCc2cccs2)C(C)(C)N1 [I/49] | 28 | – | – | 2.3 | 4.7 | arrhythmia appearance time ([2]; 2.8 mg/kg i.v.): 10.0 min; responders at 2.8 mg/kg ([2]; Rattus norvegicus, iv, 0.5 h, read-out: positive cases, 2.8 mg/kg i.v., 2 min before aconitine, no arrhythmia within 30 min = positive): 90%
CC=Cc1ccc(OCC(=O)NCCCNC(=O)C2=CC(C)(C)NC2(C)C)c(OC)c1 [I/8] | – | – | – | 1.5 | 2.2 | LD50 [4]: 30 mg/kg; arrhythmia appearance time ([2]; 3.0 mg/kg i.v.): > 30 min; responders at 3 mg/kg ([2]; Rattus norvegicus, iv, 0.5 h, read-out: positive cases, 3.0 mg/kg i.v., 2 min before aconitine, no arrhythmia within 30 min = positive): 100%
CC1(C)C=C(C(=O)NCCNCc2cccs2)C(C)(C)N1 [I/36] | – | 15.9 ± 0.3 | 70 | 4.5 | 7.6 | LD50 [4]: 49 mg/kg
C=CCc1ccc(OCC(=O)NCCCNC(=O)C2=CC(C)(C)NC2(C)C)c(OC)c1 [I/9, N-(2-methoxy-4-allyl)-phenoxy-acetyl-N'-(2,2,5,5-tetramethyl-3-pyrroline-3-carbonyl)-1,3-propylene-diamine] | 19 | – | – | 0.7 | 1.4 | arrhythmia appearance time ([2]; 1.9 mg/kg i.v.): > 30 min; responders at 1.9 mg/kg ([2]; Rattus norvegicus, iv, 0.5 h, read-out: positive cases, 1.9 mg/kg i.v., 2 min before aconitine, no arrhythmia within 30 min = positive): 100%
COc1cc(C(=O)NCCCNC(=O)C2=CC(C)(C)NC2(C)C)cc(OC)c1OC [I/2] | 119 | – | – | 7.6 | 12.3 | arrhythmia appearance time ([2]; 12.0 mg/kg i.v.): 16.7 ± 1.7 min; responders at 12 mg/kg ([2]; Rattus norvegicus, iv, 0.5 h, read-out: positive cases, 12.0 mg/kg i.v., 2 min before aconitine, no arrhythmia within 30 min = positive): 70%
CC1(C)C=C(C(=O)NCC(O)CN2C(=O)c3ccccc3C2=O)C(C)(C)N1 (stereo not shown) [I/61] | 28 | 30 | 100 | 1.9 | 3 | –
CC1(C)C=C(C(=O)NCCCNCc2cccs2)C(C)(C)N1 [I/44] | – | – | – | – | – | responders at 6.5 mg/kg ([2]; Rattus norvegicus, iv, 0.5 h, read-out: positive cases, 6.5 mg/kg i.v., 2 min before aconitine, no arrhythmia within 30 min = positive): 100%
CC1(C)C=C(C(=O)NCCCNCc2ccccc2)C(C)(C)N1 [I/38] | 26 | 27.5 | 90 | 2.2 | 3.6 | –
CC1(C)C=C(C(=O)NCCCNC(=O)CSc2ccccc2)C(C)(C)N1 [I/12] | 38 | 28.5 | 90 | 4.6 | 6.95 | –
CC1(C)C=C(C(=O)NCCN2C(=O)c3ccccc3C2=O)C(C)(C)N1 [I/59] | 55 | – | – | 4.2 | 7.9 | arrhythmia appearance time ([2]; 5.5 mg/kg i.v.): 30 min; responders at 5.5 mg/kg ([2]; Rattus norvegicus, iv, 0.5 h, read-out: positive cases, 5.5 mg/kg i.v., 2 min before aconitine, no arrhythmia within 30 min = positive): 100%
CCc1nc2ccccc2c(=O)n1CCCNC(=O)C1=CC(C)(C)NC1(C)C [I/72] | 13 | 30 | 100 | 1.1 | 1.7 | –
CC1(C)CC(C(=O)NCCCN2C(=O)c3ccccc3C2=O)C(C)(C)N1 (stereo not shown) [I/62] | 22 | 30 | 100 | 2.6 | 4.5 | –
CCc1nc2ccccc2c(=O)n1CCCNC(=O)C1CC(C)(C)NC1(C)C (stereo not shown) [I/74] | 22 | 30 | 100 | 1.9 | 2.7 | –
CC1(C)C=C(C(=O)NCCCN2C(=O)c3ccccc3C2=O)C(C)(C)N1 [I/60] | 23 | – | – | 1.4 | 2.6 | arrhythmia appearance time ([2]; 2.3 mg/kg i.v.): 26.0 min; responders at 2.3 mg/kg ([2]; Rattus norvegicus, iv, 0.5 h, read-out: positive cases, 2.3 mg/kg i.v., 2 min before aconitine, no arrhythmia within 30 min = positive): 90%
Cc1nc2ccccc2c(=O)n1CCCNC(=O)C1=CC(C)(C)NC1(C)C [I/70, 2-Methyl-3-[3-(2,2,5,5-tetramethyl-3-pyrroline-3-carbonyl-amino)-propyl]-quinazoline-4(3H)-one] | 31 | 30 | 100 | 2.5 | 4.5 | –
CC1(C)C=C(C(=O)NCCCN2C(=O)C3CC=CCC3C2=O)C(C)(C)N1 (stereo not shown) [I/58] | 113 | – | – | – | – | arrhythmia appearance time ([2]; 11.3 mg/kg i.v.): 13.1 ± 2.5 min; responders at 11.3 mg/kg ([2]; Rattus norvegicus, iv, 0.5 h, read-out: positive cases, 11.3 mg/kg i.v., 2 min before aconitine, no arrhythmia within 30 min = positive): 50%
CC1(C)CC(C(=O)NCCCNCc2cccs2)C(C)(C)N1 (stereo not shown) [I/50] | 43 | – | – | 2.7 | 4.2 | arrhythmia appearance time ([2]; 4.3 mg/kg i.v.): 30 min; responders at 4.3 mg/kg ([2]; Rattus norvegicus, iv, 0.5 h, read-out: positive cases, 4.3 mg/kg i.v., 2 min before aconitine, no arrhythmia within 30 min = positive): 100%
C=CCc1cc(C)ccc1OCC(=O)NCCCNC(=O)C1=CC(C)(C)NC1(C)C [I/11] | 14 | – | – | 1.4 | 2.4 | arrhythmia appearance time ([2]; 1.4 mg/kg i.v.): 20.1 ± 2.5 min; responders at 1.4 mg/kg ([2]; Rattus norvegicus, iv, 0.5 h, read-out: positive cases, 1.4 mg/kg i.v., 2 min before aconitine, no arrhythmia within 30 min = positive): 80%
CC1(C)C=C(C(=O)NCCCNC(=O)Cc2cccs2)C(C)(C)N1 [I/19] | 71 | – | – | 2 | 3.1 | arrhythmia appearance time ([2]; 7.0 mg/kg i.v.): 27.5 ± 2.5 min; responders at 7 mg/kg ([2]; Rattus norvegicus, iv, 0.5 h, read-out: positive cases, 7.0 mg/kg i.v., 2 min before aconitine, no arrhythmia within 30 min = positive): 80%
CCc1nc2ccccc2c(=O)n1CCNC(=O)C1=CC(C)(C)NC1(C)C [I/71] | 48 | 30 | 100 | 3.8 | 10.5 | –
